Columns and labels:
[1] = test system: Liver microsomes; test: Metabolic stability in rat liver microsomes assessed as compound remaining after 15 mins; format: ADME, Microsome; details: 0.25 h
[2] = test system: Liver microsomes; test: Metabolic stability in human liver microsomes assessed as compound remaining after 15 mins; format: ADME, Microsome; details: 0.25 h
[3] = biological target: C-C chemokine receptor type 5 (Homo sapiens, UniProt P51681); test: Antagonist activity at human CCR5 expressed in CHO cells assessed as inhibition of MIP-1alpha-induced calcium mobilization; format: functional, cell-based
[4] = Half life in rat at 3 mg/kg, iv; format: ADME, organism-based; design: dose 3 mg/kg, route intravenous; details: in vivo
[5] = Half life in rat at 10 mg/kg, po; format: ADME, organism-based; design: dose 10 mg/kg, route oral; details: in vivo
[6] = Cmax in rat at 10 mg/kg, po; format: ADME, organism-based; design: dose 10 mg/kg, route oral; details: in vivo
[7] = test system: Human immunodeficiency virus 1; test: microbe, parasite or virus in culture; details: Human immunodeficiency virus 1, Ba-L
Description: Antiviral activity against R5 tropic HIV1 Ba-L infected PBMC assessed as inhibition of viral p24 antigen expression

[8] = AUC in rat at 3 mg/kg, iv; format: ADME, organism-based; design: dose 3 mg/kg, route intravenous; details: plasma
[9] = Clearance in rat at 3 mg/kg, iv; format: ADME, organism-based; design: dose 3 mg/kg, route intravenous; details: in vivo
[10] = Bioavailability in rat at 10 mg/kg, po; format: ADME, organism-based; details: in vivo
[11] = test system: Rattus norvegicus; test: Dose normalized Cmax in rat at 10 mg/kg, po; format: ADME, organism-based; design: dose 10 mg/kg, route oral; details: in vivo
[12] = test system: Rattus norvegicus; test: Dose normalized AUC in rat at 10 mg/kg, po; format: ADME, organism-based; design: dose 10 mg/kg, route oral; details: in vivo
[13] = Aqueous solubility of the compound at pH 6.8; format: physicochemical; details: buffer

Sequence of C-C chemokine receptor type 5 (P51681 whole entry): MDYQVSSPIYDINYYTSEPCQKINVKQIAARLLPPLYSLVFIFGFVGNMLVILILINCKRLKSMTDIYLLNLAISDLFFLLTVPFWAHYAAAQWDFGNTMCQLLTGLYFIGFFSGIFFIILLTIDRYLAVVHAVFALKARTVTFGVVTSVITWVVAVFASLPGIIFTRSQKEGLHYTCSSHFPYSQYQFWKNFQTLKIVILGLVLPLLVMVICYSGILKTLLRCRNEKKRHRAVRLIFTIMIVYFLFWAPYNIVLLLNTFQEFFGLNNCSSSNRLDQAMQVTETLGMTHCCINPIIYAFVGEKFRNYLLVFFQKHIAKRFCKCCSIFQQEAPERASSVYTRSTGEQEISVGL

SMILES: CCCCN1C(=O)[C@@H]([C@H](O)C2CCCCCC2)NC(=O)C12CCN(Cc1ccc(Oc3ccc(C(=O)O)cc3)cc1)CC2.Cl
- Stability [1]: 59%
- Stability [2]: 34%
- IC50 [3]: 32 nM

SMILES: CCCCN1C(=O)[C@@H]([C@H](O)C2CCOCC2)NC(=O)C12CCN(Cc1ccc(Oc3ccc(C(=O)O)cc3)cc1)CC2
- IC50 [3]: 120 nM

SMILES: CCCCN1C(=O)[C@@H]([C@H](O)C(C)C)NC(=O)C12CCN(Cc1ccc(Oc3ccc(C(=O)O)cc3)cc1)CC2.Cl
- half-life [4]: 0.22 h
- half-life [5]: 4.5 h
- Stability [1]: 100%
- Stability [2]: 98%
- Cmax [6]: 137 ng/mL
- IC50 [7]: 59 nM
- IC90 [7]: 591 nM
- IC50 [3]: 48 nM
- AUC [8]: 2310 ng·h/mL
- clearance [9]: 21.2 mL/min/kg
- bioavailability [10]: 5.9%

SMILES: CCCCN1C(=O)[C@@H]([C@H](O)C2CCCCC2)NC(=O)C12CCN(Cc1ccc(Oc3ccc(O)cc3)cc1)CC2.Cl
- Stability [1]: 23%
- Stability [2]: 3.5%
- IC50 [3]: 68 nM

SMILES: CNC(=O)c1ccc(Oc2ccc(CN3CCC4(CC3)C(=O)N[C@H]([C@H](O)C3CCCCC3)C(=O)N4CCN(C)C)cc2)cc1
- IC50 [3]: 640 nM

SMILES: CCCCN1C(=O)[C@@H]([C@H](O)C2CCCCC2)NC(=O)C12CCN(Cc1ccc(Oc3ccc(NS(C)(=O)=O)cc3)cc1)CC2.Cl
- half-life [4]: 2.28 h
- half-life [5]: 3.42 h
- Cmax/dose [11]: 50 ng/mL
- AUC/dose [12]: 242 ng·h/mL
- Stability [1]: 91%
- Stability [2]: 1.8%
- AUC [8]: 1540 ng·h/mL
- clearance [9]: 25 mL/min/kg
- bioavailability [10]: 5%

SMILES: CNC(=O)c1ccc(Oc2ccc(CN3CCC4(CC3)C(=O)N[C@H]([C@H](O)C3CCCCC3)C(=O)N4CC(F)(F)C(F)(F)F)cc2)cc1
- IC50 [3]: 270 nM

SMILES: CCCCN1C(=O)[C@@H]([C@H](O)C2CCCCC2)NC(=O)C12CCN(Cc1ccc(Oc3ccc(S(N)(=O)=O)cc3)cc1)CC2
- IC50 [3]: 48 nM

SMILES: CNC(=O)c1ccc(Oc2ccc(CN3CCC4(CC3)C(=O)N[C@H]([C@H](O)C3CCCCC3)C(=O)N4CCOC)cc2)cc1
- IC50 [3]: 33 nM

SMILES: CCCCN1C(=O)[C@@H]([C@H](O)C2CCCCC2)NC(=O)C12CCN(Cc1ccc(Oc3ccc(C(N)=O)cc3)cc1)CC2.Cl
- Stability [1]: 19%
- Stability [2]: 1.5%
- IC50 [3]: 39 nM

SMILES: CNC(=O)c1ccc(Oc2ccc(CN3CCC4(CC3)C(=O)N[C@H]([C@H](O)C3CCCCC3)C(=O)N4CC(F)(F)F)cc2)cc1
- IC50 [3]: 46 nM

SMILES: CCCCCCCN1C(=O)[C@@H]([C@H](O)C2CCCCC2)NC(=O)C12CCN(Cc1ccc(Oc3ccc(C(=O)NC)cc3)cc1)CC2
- IC50 [3]: 190 nM

SMILES: CNC(=O)c1ccc(Oc2ccc(CN3CCC4(CC3)C(=O)N[C@H]([C@H](O)C3CCCCC3)C(=O)N4CCN)cc2)cc1
- IC50 [3]: 750 nM

SMILES: CCCCN1C(=O)[C@@H]([C@H](O)C2CCCCC2)NC(=O)C12CCN(Cc1ccc(Oc3ccc(C(=O)NC)cc3)cc1)CC2.Cl
- half-life [4]: 0.46 h
- half-life [5]: 1.22 h
- Cmax/dose [11]: 333 ng/mL
- AUC/dose [12]: 1296 ng·h/mL
- IC50 [3]: 38 nM
- AUC [8]: 3780 ng·h/mL
- clearance [9]: 12.8 mL/min/kg
- bioavailability [10]: 10%

SMILES: CCCCN1C(=O)[C@@H]([C@@H](O)C2CCC(O)CC2)NC(=O)C12CCN(Cc1ccc(Oc3ccc(C(=O)O)cc3)cc1)CC2.Cl (some centres not stated)
- Stability [1]: 92%
- IC50 [3]: 23 nM

SMILES: CCCCCCN1C(=O)[C@@H]([C@H](O)C2CCCCC2)NC(=O)C12CCN(Cc1ccc(Oc3ccc(C(=O)NC)cc3)cc1)CC2
- IC50 [3]: 110 nM

SMILES: CCCCN1C(=O)C(C(C)C)NC(=O)C12CCN(Cc1ccc(Oc3ccccc3)cc1)CC2.Cl (configuration not stated)
- solubility [13]: 0.2 µg/mL
- half-life [4]: 0.217 h
- half-life [5]: 1.26 h
- Cmax/dose [11]: 33.3 ng/mL
- AUC/dose [12]: 96.7 ng·h/mL
- AUC [8]: 372 ng·h/mL
- bioavailability [10]: 1.3%

SMILES: CCCCN1C(=O)[C@@H]([C@H](O)C2CCCCC2)NC(=O)C12CCN(Cc1ccc(Oc3ccc(OC)cc3)cc1)CC2
- IC50 [3]: 91 nM

SMILES: CCCCN1C(=O)[C@@H]([C@H](O)C2CCCCC2)NC(=O)C12CCN(Cc1ccc(Oc3ccc(S(C)(=O)=O)cc3)cc1)CC2
- IC50 [3]: 34 nM

Source: ChEMBL document CHEMBL1811891 (Bioorg Med Chem, 2011)
